These are literature values, as cited in patent US20220193028A1, “THERAPEUTIC COMBINATIONS, LIQUID PHARMACEUTICAL COMPOSITIONS, KITS FOR THEIR PREPARATION, AND METHODS OF THEIR USE” (priority 2019, published 2022).

The target of the series is AMPA receptor. The note with it: non-competitive selective allosteric modulator of the AMPA receptor; read-out: IC50 (block of glutamate induced currents).

As usually defined, the IC50 is the concentration needed to halve the response being measured. Regarding `N#Cc1ccccc1-c1cc(-c2ccccn2)cn(-c2ccccc2)c1=O` [perampanel], the IC50 is approximately 560 nM.
